“And” between values parts separate entries of the source, which are not always exact repeats. Equal values may be shown once.
Assays:
Mia Pa Ca 2 = assay: Anti-neoplasmic activity against xenograft in hairless mice; assay type: in vivo
How it was run: (§1)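 s.c. xenograft, 5×10^6 cells/mouse, female hairless mice, 5 wk. Start Rx at ~100 or 200 mm^3; 6–8 per test group. i.v. (or i.p.) 2×/wk ×4 wk, 3 doses. Readout: tumour volume, TGI %.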

H 460 = assay: as above; assay type: in vivo
How it was run: (§2)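 Mice bearing subcutaneous human tumours were randomised once tumours reached about 100 or 200 mm^3, then treated intravenously twice weekly for four weeks, with some series given intraperitoneally. Tumour length and width were measured twice weekly to derive volume and inhibition relative to controls.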

H T29 = assay: as above; assay type: in vivo; conditions: series 3, i.v., total 24 mg/kg, day 20
How it was run: as §1

DU 145 = assay: as above; assay type: in vivo; conditions: single 4 mg/kg
How it was run: (§3)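 Human tumour cells (5×10^6 per mouse) implanted subcutaneously in 5-week female nude mice; randomised at ~100–200 mm^3 tumour volume. Dosing i.v. or i.p., twice weekly (thrice for fast growers) over 4 weeks, three dose levels. Growth inhibition computed from volume change versus controls.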

HT-29 = assay: Cytotoxic activity in vitro, SRB; assay type: cell-based, human
How it was run: (§4)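 Values are EC50s, defined as the concentration of compound at which cell growth falls to 50% of control, determined by SRB assay in human-origin neoplastic cell lines.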

PC-3 = assay: Cytotoxic activity in vitro, SRB; assay type: cell-based, human
How it was run: as §4

HCT-116 = assay: Cytotoxic activity in vitro, SRB; assay type: cell-based, human
How it was run: as §4

MiaPaCa-2 = assay: Cytotoxic activity in vitro, SRB; assay type: cell-based, human
How it was run: as §4

MCF-7 = assay: Cytotoxic activity in vitro, SRB; assay type: cell-based, human
How it was run: as §4

MDA-MB-231 = assay: Cytotoxic activity in vitro, SRB; assay type: cell-based, human
How it was run: as §4

UM-UC-3 = assay: Cytotoxic activity in vitro, SRB; assay type: cell-based, human
How it was run: as §4

DU-145 = assay: Cytotoxic activity in vitro, SRB; assay type: cell-based, human
How it was run: as §4

H-460 = assay: Cytotoxic activity in vitro, SRB; assay type: cell-based, human
How it was run: as §4

AsPC-1 = assay: Cytotoxic activity in vitro, SRB; assay type: cell-based, human
How it was run: as §4

PANC-1 = assay: Cytotoxic activity in vitro, SRB; assay type: cell-based, human
How it was run: as §4

UM UC 3 = assay: Anti-neoplasmic activity against xenograft in hairless mice; assay type: in vivo; conditions: series 11, i.v., single 6 mg/kg, total 42 mg/kg, day 23
How it was run: as §1

AsPC 1 = assay: as above; assay type: in vivo
How it was run: as §1

PANC 1 = assay: as above; assay type: in vivo
How it was run: as §2

HCT 116 = assay: as above; assay type: in vivo; conditions: series 7, i.v., single 4 mg/kg, total 24 mg/kg, day 15
How it was run: as §1

MDA MB 231 = assay: as above; assay type: in vivo; conditions: series 19, i.v., single 2 mg/kg, total 16 mg/kg, day 25
How it was run: as §1

BXPC 3 = assay: as above; assay type: in vivo
How it was run: as §1

PC 3 = assay: as above; assay type: in vivo; conditions: series 12, i.p., single 1 mg/kg, total 8 mg/kg, day 39
How it was run: as §3

Capan-2 = assay: Cytotoxic activity in vitro, SRB; assay type: cell-based, human
How it was run: as §4

BxPC-3 = assay: Cytotoxic activity in vitro, SRB; assay type: cell-based, human
How it was run: as §4

SMILES: O=c1c2cc(O)ccc2[nH]c2c([N+](=O)[O-])ccc(NCCCN3CCN(CCCNc4c5ccccc5nc5cccc([N+](=O)[O-])c45)CC3)c12 [C-1941]
- TGI [%] [100 − (ΔVT/ΔVC × 100] (Mia Pa Ca 2; series 12, i.p., single 4 mg/kg, total 32 mg/kg, day 26): 30%
- TGI [%] [100 − (ΔVT/ΔVC × 100] (H 460; series 4, i.v., single 15 mg/kg, total 30 mg/kg, day 14): 24%
- TGI [%] [100 − (ΔVT/ΔVC × 100] (H T29; single 3 mg/kg): 26%
- TGI [%] [100 − (ΔVT/ΔVC × 100] (H T29; single 4 mg/kg): 35%
- TGI [%] [100 − (ΔVT/ΔVC × 100] (DU 145; series 2, i.p., total 24 mg/kg, day 35): 52%
- EC50 (HT-29): 38 nM
- EC50 (PC-3): 31 nM
- EC50 (HCT-116): 11 nM
- EC50 (MiaPaCa-2): 12 nM
- EC50 (MCF-7): 61 nM
- EC50 (MDA-MB-231): 12 nM
- EC50 (UM-UC-3): 33 nM
- EC50 (DU-145): 20 nM
- EC50 (H-460): 20 nM
- EC50 (AsPC-1): 210 nM
- EC50 (PANC-1): 43 nM

SMILES: CN(CCCNc1c2ccccc2nc2cccc([N+](=O)[O-])c12)CCCNc1ccc2ncn3c4ccccc4c(=O)c1c23 [C-2028, 9-{N-[(imidazo[4,5,1-de]-acridin-6-on-5-yl)aminopropyl]-N-methylaminopropylamino}-1′-nitroacridine]
- TGI [%] [100 − (ΔVT/ΔVC × 100] (UM UC 3): 54%
- TGI (AsPC 1; ASP-1, threshold activity): < 50%
- TGI [%] [100 − (ΔVT/ΔVC × 100] (AsPC 1; series 23, i.v., single 6 mg/kg, total 48 mg/kg, day 46): 35%
- TGI (PANC 1; PANC-1 cancer, three consecutive experimental runs): 71% and 90% and 82%
- TGI [%] [100 − (ΔVT/ΔVC × 100] (PANC 1; series 10, i.v., single 1 mg/kg, total 10 mg/kg, day 31): 71%
- TGI [%] [100 − (ΔVT/ΔVC × 100] (PANC 1; series 14, i.v., single 4 mg/kg, total 36 mg/kg, day 45): 90%
- TGI [%] [100 − (ΔVT/ΔVC × 100] (PANC 1; series 29, i.v., single 4 mg/kg, total 20 mg/kg, day 36): 59%
- TGI [%] [100 − (ΔVT/ΔVC × 100] (PANC 1; series 32, i.v, single 2 mg/kg, total 16 mg/kg, day 40): 82%
- TGI (Mia Pa Ca 2; MiaPa Ca2, threshold activity): < 50%
- TGI [%] [100 − (ΔVT/ΔVC × 100] (Mia Pa Ca 2; series 12, i.v., single 6 mg/kg, total 42 mg/kg, day 36): 52%
- TGI [%] [100 − (ΔVT/ΔVC × 100] (Mia Pa Ca 2; series 28, i.v., single 2 mg/kg, total 8 mg/kg, day 11, *at least half of animals did not survive): 68* %
- TGI [%] [100 − (ΔVT/ΔVC × 100] (HCT 116): 34%
- TGI [%] [100 − (ΔVT/ΔVC × 100] (H 460; series 16, i.v., single 1 mg/kg, total 5 mg/kg, day 28): 31%
- TGI [%] [100 − (ΔVT/ΔVC × 100] (MDA MB 231): 44%
- TGI [%] [100 − (ΔVT/ΔVC × 100] (DU 145; series 13, i.v., total 32 mg/kg, day 40): 46%
- TGI (BXPC 3; BXPC-3, significant activity): 64%
- TGI [%] [100 − (ΔVT/ΔVC × 100] (BXPC 3; series 21, i.v., single 6 mg/kg, total 30 mg/kg, day 37): 64%
- TGI [%] [100 − (ΔVT/ΔVC × 100] (BXPC 3; series 33, i.v., single 4 mg/kg, total 32 mg/kg, day 36): 43%
- TGI [%] [100 − (ΔVT/ΔVC × 100] (PC 3): 30%
- EC50 (HT-29): 37 nM
- EC50 (PC-3): 28 nM
- EC50 (HCT-116): 17 nM
- EC50 (MiaPaCa-2): 79 nM
- EC50 (MCF-7): 53 nM
- EC50 (Capan-2): 11 nM
- EC50 (MDA-MB-231): 17 nM
- EC50 (UM-UC-3): 10 nM
- EC50 (DU-145): 23 nM
- EC50 (H-460): 15 nM
- EC50 (AsPC-1): 61 nM
- EC50 (BxPC-3): 74 nM
- EC50 (PANC-1): 24 nM

Source: patent publication US10202349B2, “Asymmetric bis-acridines with antitumour activity and their uses” (POLITECHNIKA GDAŃSKA, priority 2015, dated 2019)
